In US12479849B2, “EGFR inhibitors for the treatment of cancer” (Hoffmann-La Roche Inc., priority 2019, dated 2025):

Target: T1, EGFR TMLRCS (Homo sapiens, UniProt P00533, C797S/L858R/T790M)
T1 construct: host or cells: BaF3-TMLRCS (Ba/F3 cells, kept under puromycin selection)
Test: HTRF Phospho EGFR TMLRCS Assay (Cellular)
Format: cell-based
Settings: BaF3-TMLRCS cell line, 4 hours incubation, Phospho-EGFR HTRF readout
Description: HTRF Phospho EGFR TMLRCS Assay (Cellular)
BaF3-TMLRCS cell line were obtained from Crownbio (San Diego, CA, USA). Cells were maintained at 37° C., 5% CO2 in RPMI ATCC (Gibco 31870)+2 mM Glutamine+0.5 μg/ml Puromycin supplemented with 10% fetal bovine serum (FBS) (Gibco).
Cells are transferred as above to Greiner Bio-One, Nr. 784-08 micro-titerplate at 20000 cells/well in 12.5 μl of growth medium/well after the plates had been pre-filled with 12.5 nl of DMSO solutions of the to be tested compounds (in dose response) or DMSO only. After spinning the plates at 300×g for 30 seconds the cells were incubated for 4 hours at 37 C, 5% CO2, 95% humidity. The cells were lysed by adding to the compound mix 4 μl/well of the supplemented lysis buffer (Cis-bio, Phospho-EGFR HTRF kit, 64EG1PEH), followed by incubation for 30 min at room temperature with shaking (400 rpm). The plates were then frozen and stored overnight at −80 C. On the next day and after thawing the plates, 4 μl of a mixture of anti-Phospho-EGFR Cryptate and of anti-Phospho-EGFR-d2 antibody solutions prepared in the supplied detection buffer was added to each well. The lidded plates were then incubated for 4 h at room temperature before reading the fluorescence emission at 616 and 665 nm using an Envision reader (Perkin Elmer). Data was analyzed in similar fashion as above using the normalized ratio of the 665 to 616 signals multiplied by 10000.

T1 sequence (P00533 25-1210 T790M/C797S/L858R): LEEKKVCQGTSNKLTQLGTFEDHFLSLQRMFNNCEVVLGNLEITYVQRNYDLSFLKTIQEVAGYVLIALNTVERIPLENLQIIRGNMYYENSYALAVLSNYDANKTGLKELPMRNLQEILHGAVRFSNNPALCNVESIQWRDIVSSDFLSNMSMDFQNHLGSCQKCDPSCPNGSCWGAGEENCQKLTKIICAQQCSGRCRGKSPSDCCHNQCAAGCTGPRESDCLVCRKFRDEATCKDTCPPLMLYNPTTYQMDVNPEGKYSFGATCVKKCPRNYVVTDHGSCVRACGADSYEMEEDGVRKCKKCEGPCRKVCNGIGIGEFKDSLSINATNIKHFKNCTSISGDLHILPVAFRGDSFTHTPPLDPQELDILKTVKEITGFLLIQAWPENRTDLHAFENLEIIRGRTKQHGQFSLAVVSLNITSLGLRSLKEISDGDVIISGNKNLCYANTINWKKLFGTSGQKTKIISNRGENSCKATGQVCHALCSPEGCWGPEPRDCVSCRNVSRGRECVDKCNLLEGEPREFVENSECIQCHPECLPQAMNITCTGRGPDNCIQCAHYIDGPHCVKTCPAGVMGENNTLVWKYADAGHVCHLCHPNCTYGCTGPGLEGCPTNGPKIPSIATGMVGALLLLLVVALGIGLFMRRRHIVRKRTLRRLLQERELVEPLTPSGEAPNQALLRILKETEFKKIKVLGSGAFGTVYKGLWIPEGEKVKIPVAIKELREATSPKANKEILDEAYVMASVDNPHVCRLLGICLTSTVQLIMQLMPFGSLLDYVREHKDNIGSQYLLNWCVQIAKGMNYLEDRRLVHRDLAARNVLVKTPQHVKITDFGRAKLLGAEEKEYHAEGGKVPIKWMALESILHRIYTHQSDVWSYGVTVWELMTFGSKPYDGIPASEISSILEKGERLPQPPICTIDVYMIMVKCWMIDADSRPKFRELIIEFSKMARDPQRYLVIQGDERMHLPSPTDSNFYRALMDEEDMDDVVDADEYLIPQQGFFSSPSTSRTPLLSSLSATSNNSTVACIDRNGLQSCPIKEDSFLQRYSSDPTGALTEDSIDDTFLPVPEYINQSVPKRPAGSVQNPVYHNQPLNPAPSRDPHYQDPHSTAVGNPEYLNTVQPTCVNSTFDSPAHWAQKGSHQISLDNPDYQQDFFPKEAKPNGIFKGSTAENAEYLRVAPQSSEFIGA

IC50 [nM]	Compound
5	O=C(Nc1nccs1)C(c1ncn2c1C[C@@H](F)C2)n1cc2c(Cl)cc(-c3ccc([C@@H]4CCN(C5CC(O)C5)C[C@H]4F)cc3)c(Cl)c2n1 (single isomer, unassigned) [Example 55]
8	O=C(Nc1nccs1)C(c1ncn2c1C[C@@H](F)C2)n1cc2c(Cl)cc(-c3ccc(N4CCOCC4)cc3)c(C(F)F)c2n1 (mixture of isomers) [Example 106, rac-2-(4-Chloro-7-(difluoromethyl)-6-(4-morpholinophenyl)-2H-indazol-2-yl)-2-((R)-6-fluoro-6,7-dihydro-5H-pyrrolo[1,2-c]imidazol-1-yl)-N-(thiazol-2-yl)acetamide]
6	O=C(Nc1nccs1)C(c1ncn2c1C[C@@H](F)C2)n1cc2c(Cl)cc(-c3ccc(CN4C[C@H]5COC[C@H]5C4)cc3)c(Cl)c2n1 (mixture of isomers) [Example 99, rac-2-(4,7-Dichloro-6-(4-0(3aR,6aS)-tetrahydro-1H-furo[3,4-c]pyrrol-5(3H)-yl)methyl)phenyl)-2H-indazol-2-yl)-2-((R)-6-fluoro-6,7-dihydro-5H-pyrrolo[1,2-c]imidazol-1-yl)-N-(thiazol-2-yl)acetamide]
13	O=C(Nc1nccs1)C(c1ncn2c1C[C@@H](F)C2)n1cc2c(Cl)cc(-c3ccc(OCCN4CCC5(CC4)CC(O)C5)cc3)c(Cl)c2n1 (mixture of isomers) [Example 92, rac-2-(4,7-Dichloro-6-(4-(2-(2-hydroxy-7-azaspiro[3.5]nonan-7-yl)ethoxy)phenyl)-2H-indazol-2-yl)-2-((R)-6-fluoro-6,7-dihydro-5H-pyrrolo[1,2-c]imidazol-1-yl)-N-(thiazol-2-yl)acetamide]
9	CC(O)C1CCN(CCc2ccc(-c3cc(Cl)c4cn(C(C(=O)Nc5nccs5)c5ncn6c5C[C@@H](F)C6)nc4c3Cl)cc2)CC1 (mixture of isomers) [Example 60, rac-2-(4,7-Dichloro-6-(4-(2-(4-(1-hydroxyethyl)piperidin-1-yl)ethyl)phenyl)-2H-indazol-2-yl)-2-((R)-6-fluoro-6,7-dihydro-5H-pyrrolo[1,2-c]imidazol-1-yl)-N-(thiazol-2-yl)acetamide]
4	O=C(Nc1nccs1)C(c1ncn2c1C[C@@H](F)C2)n1cc2c(Cl)cc(-c3ccc(CN4CCC(F)(CO)CC4)cc3)c(Cl)c2n1 (stereo partly drawn) [Example 65, 2-(4,7-Dichloro-6-(4-((4-fluoro-4-(hydroxymethyl)piperidin-1-yl)methyl)phenyl)-2H-indazol-2-yl)-2-((R)-6-fluoro-6,7-dihydro-5H-pyrrolo[1,2-c]imidazol-1-yl)-N-(thiazol-2-yl)acetamide]
5	O=C(Nc1nccs1)C(c1ncn2c1C[C@@H](F)C2)n1cc2c(Cl)cc(-c3ccc(N4CC(CN5CCC(CO)CC5)C4)cc3)c(Cl)c2n1 (mixture of isomers) [Example 59, rac-2-(4,7-Dichloro-6-(4-(3-((4-(hydroxymethyl)piperidin-1-yl)methyl)azetidinyl)phenyl)-2H-indazol-2-yl)-2-((R)-6-fluoro-6,7-dihydro-5H-pyrrolo[1,2-c]imidazol-1-yl)-N-(thiazol-2-yl)acetamide]
11	CCN1CC2(CCCN(c3ccc(-c4cc(Cl)c5cn(C(C(=O)Nc6nccs6)c6ncn7c6C[C@@H](F)C7)nc5c4Cl)cc3)C2)C1 (stereo partly shown) [Example 82]
7	Cc1cc(-c2ccc(N3CCOCC3)cc2)c(C)c2nn(C(C(=O)Nc3nccs3)c3ncn4c3C[C@@H](F)C4)cc12 (stereo partly drawn) [Example 118, 2-(4,7-Dimethyl-6-(4-morpholinophenyl)-2H-indazol-2-yl)-2-((R)-6-fluoro-6,7-dihydro-5H-pyrrolo[1,2-c]imidazol-1-yl)-N-(thiazol-2-yl)acetamide]
192	Cc1cc(-c2ccc(C3CCN(CC(C)F)CC3)cc2)c(Cl)c2nn(C(C(=O)Nc3nccs3)c3ncn4c3C[C@@H](F)C4)cc12 (mixture of isomers) [Example 131, rac-2-(7-Chloro-6-(4-(1-(2-fluoropropyl)piperidin-4-yl)phenyl)-4-methyl-2H-indazol-2-yl)-2-((R)-6-fluoro-6,7-dihydro-5H-pyrrolo[1,2-c]imidazol-1-yl)-N-(thiazol-2-yl)acetamide]
10	O=C(Nc1nccs1)C(c1ncn2c1C[C@@H](F)C2)n1cc2c(Cl)cc(-c3ccc(CCN4CCC(CO)CC4)cc3)c(Cl)c2n1 (mixture of isomers) [Example 51, rac-2-(4,7-Dichloro-6-(4-(2-(4-(hydroxymethyl)piperidin-1-yl)ethyl)phenyl)-2H-indazol-2-yl)-2-((R)-6-fluoro-6,7-dihydro-5H-pyrrolo[1,2-c]imidazol-1-yl)-N-(thiazol-2-yl)acetamide]
5	O=C(Nc1nccs1)C(c1ncn2c1C[C@@H](F)C2)n1cc2c(Cl)cc(-c3ccc(CN4CCC(CO)CC4)cc3)c(Cl)c2n1 (mixture of isomers) [Example 53, rac-2-(4,7-Dichloro-6-(4-04-(hydroxymethyl)piperidin-1-yl)methyl)phenyl)-2H-indazol-2-yl)-2-((R)-6-fluoro-6,7-dihydro-5H-pyrrolo[1,2-c]imidazol-1-yl)-N-(thiazol-2-yl)acetamide]
8	CCc1cc(-c2cc(Cl)c3cn(C(C(=O)Nc4nccs4)c4ncn5c4C[C@@H](F)C5)nc3c2Cl)ccc1OCCN(C)C (stereo partly drawn) [Example 40, 2-(4,7-Dichloro-6-(4-(2-(dimethylamino)ethoxy)-3-ethylphenyl)-2H-indazol-2-yl)-2-((R)-6-fluoro-6,7-dihydro-5H-pyrrolo[1,2-c]imidazol-1-yl)-N-(thiazol-2-yl)acetamide]
4	CN(Cc1ccc(-c2cc(Cl)c3cn(C(C(=O)Nc4nccs4)c4ncn5c4C[C@@H](F)C5)nc3c2Cl)cc1)C1CCC(O)CC1 (mixture of isomers) [Example 94, rac-2-(4,7-Dichloro-6-(4-(((4-hydroxycyclohexyl)(methyl)amino)methyl)phenyl)-2H-indazol-2-yl)-2-((R)-6-fluoro-6,7-dihydro-5H-pyrrolo[1,2-c]imidazol-1-yl)-N-(thiazol-2-yl)acetamide]
10	CCN1CCC(c2ccc(-c3cc(Cl)c4cn(C(C(=O)Nc5nccs5)c5ncn6c5C[C@@H](F)C6)nc4c3Cl)cc2)CC1 (mixture of isomers) [Example 31, 2-[4,7-Dichloro-6-[4-(1-ethylpiperidin-4-yl)phenyl]indazol-2-yl]-2-[rac-(6R)-6-fluoro-6,7-dihydro-5H-pyrrolo[1,2-c]imidazol-1-yl]-N-(1,3-thiazol-2-yl)acetamide]
15	CCN1CCC(c2ccc(-c3cc(C)c4cn(C(C(=O)Nc5nccs5)c5ncn6c5C[C@@H](F)C6)nc4c3C)cc2)CC1 (stereo partly drawn) [Example 120, 2-(6-(4-(1-Ethylpiperidin-4-yl)phenyl)-4,7-dimethyl-2H-indazol-2-yl)-2-((R)-6-fluoro-6,7-dihydro-5H-pyrrolo[1,2-c]imidazol-1-yl)-N-(thiazol-2-yl)acetamide]
1	O=C(Nc1nccs1)C(c1ncn2c1C[C@@H](F)C2)n1cc2c(Cl)cc(-c3ccc(OCCN4CCC(O)CC4)cc3)c(Cl)c2n1 (mixture of isomers) [Example 77, rac-2-(4,7-Dichloro-6-(4-(2-(4-hydroxypiperidin-1-yl)ethoxy)phenyl)-2H-indazol-2-yl)-2-((R)-6-fluoro-6,7-dihydro-5H-pyrrolo[1,2-c]imidazol-1-yl)-N-(thiazol-2-yl)acetamide]
10	COCCNCCc1ccc(-c2cc(Cl)c3cn(C(C(=O)Nc4nccs4)c4ncn5c4C[C@@H](F)C5)nc3c2Cl)cc1 (mixture of isomers) [Example 101, rac-2-(4,7-Dichloro-6-(4-(24(2-methoxyethyl)amino)ethyl)phenyl)-2H-indazol-2-yl)-2-((R)-6-fluoro-6,7-dihydro-5H-pyrrolo[1,2-c]imidazol-1-yl)-N-(thiazol-2-yl)acetamide]
9	CCN1C[C@@H]2CN(c3ccc(-c4cc(Cl)c5cn(C(C(=O)Nc6nccs6)c6ncn7c6C[C@@H](F)C7)nc5c4Cl)cc3)C[C@@H]2C1 (stereo partly drawn) [Example 81, 2-(4,7-Dichloro-6-(4-((3aR,6aS)-5-ethylhexahydropyrrolo[3,4-c]pyrrol-2(1H)-yl)phenyl)-2H-indazol-2-yl)-2-((R)-6-fluoro-6,7-dihydro-5H-pyrrolo[1,2-c]imidazol-1-yl)-N-(thiazol-2-yl)acetamide]
2	O=C(Nc1nccs1)C(c1ncn2c1C[C@@H](F)C2)n1cc2c(Cl)cc(-c3ccc(N4CCN(C5CC(O)C5)CC4)cc3)c(Cl)c2n1 (mixture of isomers) [Example 66, rac-2-(4,7-Dichloro-6-(4-(4-(3-hydroxycyclobutyl)piperazin-1-yl)phenyl)-2H-indazol-2-yl)-2-((R)-6-fluoro-6,7-dihydro-5H-pyrrolo[1,2-c]imidazol-1-yl)-N-(thiazol-2-yl)acetamide]
12	O=C(Nc1nccs1)C(c1ncn2c1C[C@@H](F)C2)n1cc2c(Cl)cc(-c3ccc(C4CN(CCO)C4)cc3)c(Cl)c2n1 (stereo partly drawn) [Example 84, 2-(4,7-Dichloro-6-(4-(1-(2-hydroxyethyl)azetidin-3-yl)phenyl)-2H-indazol-2-yl)-2-((R)-6-fluoro-6,7-dihydro-5H-pyrrolo[1,2-c]imidazol-1-yl)-N-(thiazol-2-yl)acetamide]
15	CCN(C)CCc1ccc(-c2cc(C)c3cn(C(C(=O)Nc4nccs4)c4ncn5c4C[C@@H](F)C5)nc3c2C)cc1 (stereo partly shown) [Example 123]
